The assay can be described thus: CaOx aggregation inhibition (aggregation coefficient of seed COM crystals). Particulars: 200 μL sample added to 2 mL seed COM suspension, 37° C., 10 min; embodiment 100% concentration; BSA 1 mg/mL; citric acid positive control. How it is done: In the following in-vitro trials, all “%” marks represented percentages by weight. An embodiment of “100%” concentration was prepared by mixing 60 mL of a beverage concentrate of an exemplary composition (see Table 1 above) with 440 mL of distilled water, equivalent to a ratio of 0.136 parts of the exemplary composition to one part of water. An embodiment of a concentration lower than 100% was prepared by further diluting said embodiment of 100% concentration with distilled water by a conventionally known dilution means that is appropriate for food and beverages. All the mixtures concerned were conventionally mixed to achieve effective uniformity for food and beverages.
Seed calcium oxalate monohydrate (COM) crystals were prepared and diluted to 50 mg/mL in 0.05 M Tris/0.15 NaCl, pH 6.5. An embodiment having the 100% concentration, or bovine serum albumin (BSA) or distilled water (blank) (200 μL) was added to the freshly prepared working seed COM suspension (2 mL). After mixing, absorbance at 620 nm was measured as baseline (AT0). After incubating at 37° C. for 10 min. absorbance was measured again (AT10). The aggregation coefficient (AC) was calculated from: AC=((AT0−AT10)/10)×1,000. Higher AC value indicates higher COM aggregation.

Take `O=C(O)CC(O)(CC(=O)O)C(=O)O` [Citric acid]: the “aggregation of seed COM crystals” value is “strongly inhibited”.

Turning to bovine serum albumin [BSA], the “aggregation of seed COM crystals” value was “did not”.
